The values that follow come from patent publication US20080234233A1, “MEDICAMENT FOR TREATMENT OF NEURODEGENERATIVE DISEASES” (INSTITUTE OF MEDICINAL MOLECULAR DESIGN INC., priority 2002, published 2008).

The structures appear in SMILES notation.

The test system of this experiment is NF-κ B activation. Nature of the experiment: Inhibitory activity of NF-κB activation, luciferase reporter assay under TNF-α stimulation in HepG2. Particulars: HepG2, TNF-α 40 ng/ml, 4 hours; for inhibition at 1 µg/mL / inhibition at 10 µg/mL: Homo sapiens, read-out: Inhibitory rate against NF-κB activation (%). It is filed as cell-based, human. As for the experimental part: Measurement of Inhibitory Activity of NF-κB activation
Using a transfection reagent (Effectene; QIAGEN), the human hepatoma cell strain HepG2 was transfected with a plasmid (pNF κ B-Luc Reporter Plasmid; […]) integrated with an oligonucleotide having five tandem copies of NF-κ B binding sequences([…]) on a upstream region of firefly luciferase gene(Luc) according to the QIAGEN's protocol, and the cells were incubated for 6 to 24 hours. After addition of TNF-α (40 ng/ml) in the presence or absence of a test compound, the cells were incubated for 4 hours, and intracellular luciferase activity was measured by using PicaGene LT (TOYO INK MFG Co., Ltd.) and a chemical luminescence measurement apparatus ([…]luor Plus; TECAN). The inhibitory ratio was measured as a ratio relative to the value of the luciferase activity in the absence of the test compound.

Turning to `CC(=O)Oc1ccccc1C(=O)Nc1cc(C(F)(F)F)cc(C(F)(F)F)c1` [compound 1, 2-acetoxy-N-[3,5-bis(trifluoromethyl)phenyl]benzamide], for the setting “Drug concentration at 1 μg/mL”, the inhibition at 1 µg/mL was 90.9%. The inhibition at 10 µg/mL (Drug concentration at 10 μg/mL) was found to be 97.1%.

As for `O=C(Nc1cc(C(F)(F)F)cc(C(F)(F)F)c1)c1ccccc1O` [compound 2], the “Inhibitory rate against NF-κB activation (%)” value (from here on “Inhibitory rate … (%)”) (Drug concentration at 1 μg/mL) came out at 93.3% and the “Inhibitory rate … (%)” value (Drug concentration at 10 μg/mL) amounted to 95.6%.

For the molecule `O=C(Nc1cc(C(F)(F)F)cc(C(F)(F)F)c1)c1cc(F)ccc1O` [compound 3], the “Inhibitory rate … (%)” value turned out to be 81.5% (Drug concentration at 1 μg/mL) and 94.3% (Drug concentration at 10 μg/mL).

For the molecule `CC(=O)Oc1ccc(Cl)cc1C(=O)Nc1cc(C(F)(F)F)cc(C(F)(F)F)c1` [compound 5], the “Inhibitory rate … (%)” value runs as follows: (Drug concentration at 1 μg/mL) 96.5%; (Drug concentration at 10 μg/mL) 99.2%.

Take `O=C(Nc1cc(C(F)(F)F)cc(C(F)(F)F)c1)c1cc([N+](=O)[O-])ccc1O` [compound 8, N-[3,5-bis(trifluoromethyl)phenyl]-2-hydroxy-5-nitrobenzamide]: the inhibition at 1 µg/mL (Drug concentration at 1 μg/mL) was 92%. In addition, the inhibition at 10 µg/mL (Drug concentration at 10 μg/mL) is 99.2%.

As to `N#Cc1ccc(O)c(C(=O)Nc2cc(C(F)(F)F)cc(C(F)(F)F)c2)c1` [compound 9, N-[3,5-Bis(trifluoromethyl)phenyl]-5-cyano-2-hydroxybenzamide], the inhibition at 1 µg/mL (Drug concentration at 1 μg/mL) turned out to be 92.2%. The inhibition at 10 µg/mL (Drug concentration at 10 μg/mL) stood at 99.6%.

On to `Cc1ccc(O)c(C(=O)Nc2cc(C(F)(F)F)cc(C(F)(F)F)c2)c1` [compound 10], for which the “Inhibitory rate … (%)” value is recorded as 95.8% (Drug concentration at 1 μg/mL) and 99.4% (Drug concentration at 10 μg/mL).

In the case of `CC(C)(C)c1ccc(O)c(C(=O)Nc2cc(C(F)(F)F)cc(C(F)(F)F)c2)c1` [compound 11, N-[3,5-Bis(trifluoromethyl)phenyl]-5-[(1,1-dimethyl)ethyl]-2-hydroxybenzamide], for the setting “Drug concentration at 1 μg/mL”, the inhibition at 1 µg/mL is 92.9%. The inhibition at 10 µg/mL (Drug concentration at 10 μg/mL) was 98.3%.

Consider `CC(=O)c1ccc(O)c(C(=O)Nc2cc(C(F)(F)F)cc(C(F)(F)F)c2)c1` [compound 12, 5-Acetyl-N-[3,5-bis(trifluoromethyl)phenyl]-2-hydroxybenzamide], for which the inhibition at 1 µg/mL (Drug concentration at 1 μg/mL) was 86.3%. Further, the inhibition at 10 µg/mL (Drug concentration at 10 μg/mL) was 99.2%.

`CC(O)c1ccc(O)c(C(=O)Nc2cc(C(F)(F)F)cc(C(F)(F)F)c2)c1` (stereo not drawn) [compound 13]: the “Inhibitory rate … (%)” value reads like this: (Drug concentration at 1 μg/mL) 76.8%; (Drug concentration at 10 μg/mL) 96.0%.

As to `CON=C(C)c1ccc(O)c(C(=O)Nc2cc(C(F)(F)F)cc(C(F)(F)F)c2)c1` [compound 14], the “Inhibitory rate … (%)” value (Drug concentration at 1 μg/mL) worked out at 94.7% and the “Inhibitory rate … (%)” value (Drug concentration at 10 μg/mL) is listed as 98.3%.

In the case of `CC(=NOCc1ccccc1)c1ccc(O)c(C(=O)Nc2cc(C(F)(F)F)cc(C(F)(F)F)c2)c1` [compound 15], the “Inhibitory rate … (%)” value is, setting by setting: (Drug concentration at 1 μg/mL) 94.5%; (Drug concentration at 10 μg/mL) 99.2%.

Consider `N#CC(C#N)=Cc1ccc(O)c(C(=O)Nc2cc(C(F)(F)F)cc(C(F)(F)F)c2)c1` [compound 16, N-[3,5-Bis(trifluoromethyl)phenyl]-5-(2,2-dicyanoethen-1-yl)-2-hydroxybenzamide], for which the inhibition at 1 µg/mL (Drug concentration at 1 μg/mL) worked out at 42.7%. In addition, the inhibition at 10 µg/mL (Drug concentration at 10 μg/mL) is 99.4%.

Regarding `COC(=O)C(C#N)=Cc1ccc(O)c(C(=O)Nc2cc(C(F)(F)F)cc(C(F)(F)F)c2)c1` [compound 17, 3-({N-[3,5-Bis(trifluoromethyl)phenyl]carbamoyl}-4-hydroxyphenyl)-2-cyanoacrylic acid methyl ester], the “Inhibitory rate … (%)” value is given as 74.9% (Drug concentration at 1 μg/mL) and 99.1% (Drug concentration at 10 μg/mL).

With `N#CC(=Cc1ccc(O)c(C(=O)Nc2cc(C(F)(F)F)cc(C(F)(F)F)c2)c1)C(=O)O` [compound 18], the “Inhibitory rate … (%)” value by setting is: (Drug concentration at 1 μg/mL) 59.7%; (Drug concentration at 10 μg/mL) 98.5%.

As to `C[Si](C)(C)C#Cc1ccc(O)c(C(=O)Nc2cc(C(F)(F)F)cc(C(F)(F)F)c2)c1` [compound 20, N-[3,5-bis(trifluoromethyl)phenyl]-2-hydroxy-5-[(trimethylsilyl)ethynyl]benzamide], the inhibition at 1 µg/mL (Drug concentration at 1 μg/mL) turned out to be 91.1%. Moreover, the inhibition at 10 µg/mL (Drug concentration at 10 μg/mL) came out at 94.9%.

On to `C#Cc1ccc(O)c(C(=O)Nc2cc(C(F)(F)F)cc(C(F)(F)F)c2)c1` [compound 21], for which the “Inhibitory rate … (%)” value (Drug concentration at 1 μg/mL) was found to be 53.3% and the “Inhibitory rate … (%)” value (Drug concentration at 10 μg/mL) came to 90.1%.

`O=C(Nc1cc(C(F)(F)F)cc(C(F)(F)F)c1)c1cc(CCc2ccccc2)ccc1O` [compound 24]: the “Inhibitory rate … (%)” value is, setting by setting: (Drug concentration at 1 μg/mL) 92.3%; (Drug concentration at 10 μg/mL) 98.3%.

Turning to `O=C(Nc1cc(C(F)(F)F)cc(C(F)(F)F)c1)c1cc(C(F)(F)F)ccc1O` [compound 25], the “Inhibitory rate … (%)” value (Drug concentration at 1 μg/mL) is given as 96.4% and the “Inhibitory rate … (%)” value (Drug concentration at 10 μg/mL) is listed as 99.6%.

Turning to `O=C(Nc1cc(C(F)(F)F)cc(C(F)(F)F)c1)c1cc(C(F)(F)C(F)(F)F)ccc1O` [compound 26], the “Inhibitory rate … (%)” value runs as follows: (Drug concentration at 1 μg/mL) 93.3%; (Drug concentration at 10 μg/mL) 95.4%.

Take `O=C(Nc1cc(C(F)(F)F)cc(C(F)(F)F)c1)c1cc(-n2cccc2)ccc1O` [compound 27]: the “Inhibitory rate … (%)” value reads like this: (Drug concentration at 1 μg/mL) 93.8%; (Drug concentration at 10 μg/mL) 97.9%.

Consider `O=C(Nc1cc(C(F)(F)F)cc(C(F)(F)F)c1)c1cc(-c2cccs2)ccc1O` [compound 28], for which the “Inhibitory rate … (%)” value (Drug concentration at 1 μg/mL) is recorded as 79.5% and the “Inhibitory rate … (%)” value (Drug concentration at 10 μg/mL) was determined as 97.8%.

Take `Cc1nc(-c2ccc(O)c(C(=O)Nc3cc(C(F)(F)F)cc(C(F)(F)F)c3)c2)cs1` [compound 30, N-[3,5-Bis(trifluoromethyl)phenyl]-2-hydroxy-5-(2-methylthiazol-4-yl)benzamide]: where the note is “Drug concentration at 1 μg/mL”, the inhibition at 1 µg/mL stood at 82.1%. Moreover, under “Drug concentration at 10 μg/mL”, the inhibition at 10 µg/mL was 95.3%.

With `O=C(Nc1cc(C(F)(F)F)cc(C(F)(F)F)c1)c1cc(-c2ccccn2)ccc1O` [compound 32, N-[3,5-Bis(trifluoromethyl)phenyl]-2-hydroxy-5-(pyridin-2-yl)benzamide], under “Drug concentration at 1 μg/mL”, the inhibition at 1 µg/mL turned out to be 90.4%. Moreover, the inhibition at 10 µg/mL (Drug concentration at 10 μg/mL) was found to be 99%.

For `COc1ccc(O)c(C(=O)Nc2cc(C(F)(F)F)cc(C(F)(F)F)c2)c1` [compound 33], the “Inhibitory rate … (%)” value is, setting by setting: (Drug concentration at 1 μg/mL) 30.7%; (Drug concentration at 10 μg/mL) 97.0%.

As for `CC(C)C(=O)c1ccc(O)c(C(=O)Nc2cc(C(F)(F)F)cc(C(F)(F)F)c2)c1` [compound 34, N-[3,5-Bis(trifluoromethyl)phenyl]-2-hydroxy-5-isobutyrylbenzamide], the inhibition at 1 µg/mL (Drug concentration at 1 μg/mL) is 90.7%. The inhibition at 10 µg/mL (Drug concentration at 10 μg/mL) stood at 98.7%.

`COC(=O)c1ccc(O)c(C(=O)Nc2cc(C(F)(F)F)cc(C(F)(F)F)c2)c1` [compound 35, N-[3,5-bis(trifluoromethyl)phenyl]-4-hydroxyisophthalamic acid methyl ester]: the inhibition at 1 µg/mL (Drug concentration at 1 μg/mL) amounted to 88.2%. Besides, the inhibition at 10 µg/mL (Drug concentration at 10 μg/mL) is 96.4%.

Regarding `O=C(Nc1cc(C(F)(F)F)cc(C(F)(F)F)c1)c1ccc(O)c(C(=O)Nc2cc(C(F)(F)F)cc(C(F)(F)F)c2)c1` [compound 37], the “Inhibitory rate … (%)” value (Drug concentration at 10 μg/mL) was 94.5%.

Regarding `CN(C)C(=O)c1ccc(O)c(C(=O)Nc2cc(C(F)(F)F)cc(C(F)(F)F)c2)c1` [compound 38, N^3-[3,5-bis(trifluoromethyl)phenyl]-4-hydroxy-N^1,N^1-dimethylisophthalamide], the inhibition at 1 µg/mL (Drug concentration at 1 μg/mL) turned out to be 16%. The inhibition at 10 µg/mL (Drug concentration at 10 μg/mL) came out at 87.1%.

Regarding `O=C(Nc1cc(C(F)(F)F)cc(C(F)(F)F)c1)c1cc(C(=O)N2CCCCC2)ccc1O` [compound 39, N-[3,5-Bis(trifluoromethyl)phenyl]-2-hydroxy-5-(piperidine-1-carbonyl)benzamide], the inhibition at 1 µg/mL (Drug concentration at 1 μg/mL) is 23.7%. Moreover, under “Drug concentration at 10 μg/mL”, the inhibition at 10 µg/mL came to 82.2%.

In the case of `CN(C)S(=O)(=O)c1ccc(O)c(C(=O)Nc2cc(C(F)(F)F)cc(C(F)(F)F)c2)c1` [compound 41, N-[3,5-Bis(trifluoromethyl)phenyl]-5-dimethylsufamoyl-2-hydroxybenzamide], the “Inhibitory rate … (%)” value is, setting by setting: (Drug concentration at 1 μg/mL) 42.2%; (Drug concentration at 10 μg/mL) 95.9%.

Turning to `O=C(Nc1cc(C(F)(F)F)cc(C(F)(F)F)c1)c1cc(S(=O)(=O)n2cccc2)ccc1O` [compound 42, N-[3,5-Bis(trifluoromethyl)phenyl]-2-hydroxy-5-(pyrrole-1-sulfonyl)benzamide], the inhibition at 1 µg/mL (Drug concentration at 1 μg/mL) worked out at 84.4%. In addition, the inhibition at 10 µg/mL (Drug concentration at 10 μg/mL) was determined as 98.1%.

As to `CN(C)c1ccc(O)c(C(=O)Nc2cc(C(F)(F)F)cc(C(F)(F)F)c2)c1` [compound 44], the “Inhibitory rate … (%)” value (Drug concentration at 10 μg/mL) was 67.5%.

Regarding `O=C(Nc1ccc(O)c(C(=O)Nc2cc(C(F)(F)F)cc(C(F)(F)F)c2)c1)c1ccccc1` [compound 45], for the setting “Drug concentration at 10 μg/mL”, the “Inhibitory rate … (%)” value was determined as 63.4%.

In the case of `O=C(Nc1ccccc1)Nc1ccc(O)c(C(=O)Nc2cc(C(F)(F)F)cc(C(F)(F)F)c2)c1` [compound 46], the “Inhibitory rate … (%)” value (Drug concentration at 1 μg/mL) is reported as 20.5% and the “Inhibitory rate … (%)” value (Drug concentration at 10 μg/mL) is recorded as 88.4%.

`O=C(Nc1cc(C(F)(F)F)cc(C(F)(F)F)c1)c1cc(NC(=S)Nc2ccccc2)ccc1O` [compound 47]: the “Inhibitory rate … (%)” value by setting is: (Drug concentration at 1 μg/mL) 51.8%; (Drug concentration at 10 μg/mL) 97.2%.
